Laboratory results as given in PubChem BioAssay AID228 (DTP/NCI, 2004).
Where “and” joins values, the source holds several entries; their conditions need not be identical. Equal values may be shown once. Results filed as inconclusive are left out.

Test system: BDF1 mice, Friend leukemia sc, tumor weight T/C
Test: NCI In Vivo Anticancer Drug Screen. Data for tumor model Friend Virus Leukemia (Solid) (subcutaneous) in B6D2F1 (BDF1) mice
Details: endpoint: mean tumor weight, higher = larger tumour
Description: The antitumor activity of compounds was measured in mice bearing transplantable tumors. Survival or tumor size were measured and the results are expressed as the measurement made in the treated group (T) divided by the measurement made in the vehicle treated control group (C). The tumor model used in this assay is Friend Virus Leukemia (Solid) (subcutaneous) in B6D2F1 (BDF1) mice

[1] = dose: 50.0 mg/kg/injection, schedule: Q01DX011 (ip), vehicle: carboxymethylcellulose (CMC)
[2] = dose: 100.0 mg/kg/injection, schedule: Q01DX011 (ip), vehicle: carboxymethylcellulose (CMC)
[3] = dose: 12.0 mg/kg/injection, schedule: Q01DX011 (ip), vehicle: carboxymethylcellulose (CMC)
[4] = dose: 25.0 mg/kg/injection, schedule: Q01DX011 (ip), vehicle: carboxymethylcellulose (CMC)
[5] = dose: 0.75 mg/kg/injection, schedule: Q01DX011 (ip), vehicle: carboxymethylcellulose (CMC)
[6] = dose: 1.5 mg/kg/injection, schedule: Q01DX011 (ip), vehicle: carboxymethylcellulose (CMC)
[7] = dose: 6.0 mg/kg/injection, schedule: Q01DX011 (ip), vehicle: carboxymethylcellulose (CMC)
[8] = dose: 1.0 mg/kg/injection, schedule: Q01DX011 (ip), vehicle: carboxymethylcellulose (CMC)
[9] = dose: 3.0 mg/kg/injection, schedule: Q01DX011 (ip), vehicle: carboxymethylcellulose (CMC)
[10] = dose: 0.38 mg/kg/injection, schedule: Q01DX011 (ip), vehicle: carboxymethylcellulose (CMC)

Structure (SMILES): CC(C)NCC(=O)c1ccc(O)c(O)c1
- T/C (dose: 50.0 mg/kg/injection, schedule: Q01DX011 (ip), vehicle: saline): 95 % of control
- T/C (dose: 100.0 mg/kg/injection, schedule: Q01DX011 (ip), vehicle: saline): 110 % of control
- T/C (dose: 200.0 mg/kg/injection, schedule: Q01DX011 (ip), vehicle: saline): 102 % of control

Structure (SMILES): CCC(c1ccc(O)cc1)C(CC)c1ccc(OC)cc1 (centres undefined)
- T/C (dose: 0.5 mg/kg/injection, schedule: Q01DX011 (sc), vehicle: steriod suspending solution): 86 % of control
- T/C (dose: 1.0 mg/kg/injection, schedule: Q01DX011 (sc), vehicle: steriod suspending solution): 73 % of control
- T/C (dose: 3.0 mg/kg/injection, schedule: Q01DX011 (sc), vehicle: steriod suspending solution): 60 % of control and 72 % of control
- T/C (dose: 6.0 mg/kg/injection, schedule: Q01DX011 (sc), vehicle: steriod suspending solution): 61 % of control and 73 % of control
- T/C (dose: 12.0 mg/kg/injection, schedule: Q01DX011 (sc), vehicle: steriod suspending solution): 43 % of control
- T/C (dose: 25.0 mg/kg/injection, schedule: Q01DX011 (sc), vehicle: steriod suspending solution): 54 % of control and 48 % of control
- T/C (dose: 50.0 mg/kg/injection, schedule: Q01DX011 (sc), vehicle: steriod suspending solution): 38 % of control
- T/C (dose: 100.0 mg/kg/injection, schedule: Q01DX011 (sc), vehicle: steriod suspending solution): 43 % of control
- T/C (dose: 200.0 mg/kg/injection, schedule: Q01DX011 (sc), vehicle: steriod suspending solution): 36 % of control

Structure (SMILES): Nc1ncnc2c1ncn2C1CCCO1 (centres undefined)
- T/C [1]: 111 % of control
- T/C [2]: 54 % of control

Structure (SMILES): CCCCCCCCCC(C)(O)C#CC(C)(O)CCCCCCCCC (centres undefined)
- T/C [3]: 81 % of control
- T/C [4]: 82 % of control
- T/C [1]: 58 % of control and 59 % of control
- T/C [2]: 55 % of control
- T/C (dose: 200.0 mg/kg/injection, schedule: Q01DX011 (ip), vehicle: carboxymethylcellulose (CMC)): 34 % of control

Structure (SMILES): Cc1cc2nc3c(=O)[nH]c(=O)nc-3n(CC(O)C(O)C(O)C(O)CO)c2cc1C (centres undefined)
- T/C (dose: 56.0 mg/kg/injection, schedule: Q01DX011 (ip), vehicle: carboxymethylcellulose (CMC)): 103 % of control
- T/C (dose: 113.0 mg/kg/injection, schedule: Q01DX011 (ip), vehicle: carboxymethylcellulose (CMC)): 110 % of control

Structure (SMILES): CSc1ncnc2c1ncn2C1OC(CO)C(O)C1O (centres undefined)
- T/C (dose: 6.0 mg/kg/injection, schedule: Q01DX011 (ip), vehicle: saline): 105 % of control
- T/C (dose: 9.0 mg/kg/injection, schedule: Q01DX011 (ip), vehicle: saline): 121 % of control
- T/C (dose: 12.5 mg/kg/injection, schedule: Q01DX011 (ip), vehicle: saline): 99 % of control
- T/C (dose: 15.0 mg/kg/injection, schedule: Q01DX011 (ip), vehicle: saline): 112 % of control

Structure (SMILES): CC1(C)N=C(N)N=C(N)N1c1cccc(Br)c1
- T/C [4]: 88 % of control

Structure (SMILES): CSc1ncnc2c1ncn2C1CCCO1 (centres undefined)
- T/C [3]: 96 % of control
- T/C [4]: 45 % of control
- T/C [2]: 3 % of control and 9 % of control

Structure (SMILES): S=c1nc[nH]c2c1ncn2C1CCCO1 (centres undefined)
- T/C [5]: 79 % of control
- T/C [6]: 65 % of control
- T/C [7]: 54 % of control and 35 % of control
- T/C [3]: 27 % of control and 45 % of control
- T/C [4]: 9 % of control and 10 % of control
- T/C [1]: 2 % of control and 20 % of control
- T/C [2]: 1 % of control and 3 % of control

Structure (SMILES): CC[C@]1(O)C[C@H]2CN(CCc3c([nH]c4ccccc34)[C@@](C(=O)OC)(c3cc4c(cc3OC)N(C)[C@H]3[C@@](O)(C(=O)OC)[C@H](OC(C)=O)[C@]5(CC)C=CCN6CC[C@]43[C@@H]65)C2)C1
- T/C (dose: 0.12 mg/kg/injection, schedule: Q01DX011 (ip), vehicle: carboxymethylcellulose (CMC)): 103 % of control
- T/C (dose: 0.24 mg/kg/injection, schedule: Q01DX011 (ip), vehicle: carboxymethylcellulose (CMC)): 53 % of control

Structure (SMILES): CC(=O)[C@H]1CC[C@H]2[C@@H]3CCC4=CC(=O)[C@H](C)C[C@]4(C)[C@@]3(F)[C@@H](O)C[C@]12C
- T/C (dose: 9.5 mg/kg/injection, schedule: Q01DX011 (sc), vehicle: steriod suspending solution): 71 % of control
- T/C (dose: 19.0 mg/kg/injection, schedule: Q01DX011 (sc), vehicle: steriod suspending solution): 50 % of control
- T/C (dose: 75.0 mg/kg/injection, schedule: Q01DX011 (sc), vehicle: steriod suspending solution): 25 % of control and 42 % of control and 46 % of control
- T/C (dose: 150.0 mg/kg/injection, schedule: Q01DX011 (sc), vehicle: steriod suspending solution): 28 % of control
- T/C (dose: 300.0 mg/kg/injection, schedule: Q01DX011 (sc), vehicle: steriod suspending solution): 19 % of control

Structure (SMILES): C[C@]12C=CC(=O)C=C1CC[C@@H]1[C@@H]2CC[C@]2(C)OC(=O)CC[C@@H]12
- T/C (dose: 250.0 mg/kg/injection, schedule: Q01DX011 (sc), vehicle: steriod suspending solution): 115 % of control
- T/C (dose: 500.0 mg/kg/injection, schedule: Q01DX011 (sc), vehicle: steriod suspending solution): 120 % of control
- T/C (dose: 1000.0 mg/kg/injection, schedule: Q01DX011 (sc), vehicle: steriod suspending solution): 112 % of control

Structure (SMILES): CN(C)N=Nc1n[nH]nc1C(N)=O
- T/C (dose: 250.0 mg/kg/injection, schedule: Q01DX011 (ip), vehicle: saline): 75 % of control
- T/C (dose: 375.0 mg/kg/injection, schedule: Q01DX011 (ip), vehicle: saline): 40 % of control

Structure (SMILES): CC(CCC(C)OS(C)(=O)=O)OS(C)(=O)=O (centres undefined)
- T/C (dose: 0.5 mg/kg/injection, schedule: Q01DX011 (ip), vehicle: carboxymethylcellulose (CMC)): 82 % of control
- T/C [8]: 91 % of control
- T/C (dose: 2.0 mg/kg/injection, schedule: Q01DX011 (ip), vehicle: carboxymethylcellulose (CMC)): 103 % of control
- T/C (dose: 4.0 mg/kg/injection, schedule: Q01DX011 (ip), vehicle: carboxymethylcellulose (CMC)): 105 % of control
- T/C [7]: 98 % of control
- T/C (dose: 6.25 mg/kg/injection, schedule: Q01DX011 (ip), vehicle: carboxymethylcellulose (CMC)): 56 % of control

Structure (SMILES): O=C(O)CCCc1ccc(N(CCCl)CCCl)cc1
- T/C (dose: 1.87 mg/kg/injection, schedule: Q01DX011 (ip), vehicle: carboxymethylcellulose (CMC)): 93 % of control
- T/C (dose: 7.5 mg/kg/injection, schedule: Q01DX011 (ip), vehicle: carboxymethylcellulose (CMC)): 76 % of control and 91 % of control

Structure (SMILES): Cc1nc(N)nc(N)c1-c1ccc(Cl)c(Cl)c1
- T/C [5]: 96 % of control
- T/C [6]: 105 % of control
- T/C [9]: 59 % of control

Structure (SMILES): O=C1N(Cl)C(=O)C(c2ccc(Cl)cc2)(c2ccc(Cl)cc2)N1Cl
- T/C (dose: 15.0 mg/kg/injection, schedule: Q01DX011 (ip), vehicle: carboxymethylcellulose (CMC)): 56 % of control
- T/C (dose: 30.0 mg/kg/injection, schedule: Q01DX011 (ip), vehicle: carboxymethylcellulose (CMC)): 42 % of control
- T/C (dose: 60.0 mg/kg/injection, schedule: Q01DX011 (ip), vehicle: carboxymethylcellulose (CMC)): 33 % of control
- T/C (dose: 120.0 mg/kg/injection, schedule: Q01DX011 (ip), vehicle: carboxymethylcellulose (CMC)): 47 % of control

Structure (SMILES): CSc1ncnc2nc[nH]c12
- T/C (dose: 5.7 mg/kg/injection, schedule: Q01DX011 (ip), vehicle: carboxymethylcellulose (CMC)): 155 % of control
- T/C (dose: 11.5 mg/kg/injection, schedule: Q01DX011 (ip), vehicle: carboxymethylcellulose (CMC)): 115 % of control
- T/C (dose: 22.5 mg/kg/injection, schedule: Q01DX011 (ip), vehicle: carboxymethylcellulose (CMC)): 59 % of control and 81 % of control
- T/C (dose: 45.0 mg/kg/injection, schedule: Q01DX011 (ip), vehicle: carboxymethylcellulose (CMC)): 35 % of control and 42 % of control
- T/C (dose: 90.0 mg/kg/injection, schedule: Q01DX011 (ip), vehicle: carboxymethylcellulose (CMC)): 39 % of control

Structure (SMILES): CC(=O)Nc1ccc2nc3ccc(NC(C)=O)cc3[n+](-c3ccccc3)c2c1
- T/C [4]: 101 % of control
- T/C [1]: 112 % of control
- T/C [2]: 92 % of control

Structure (SMILES): Cn1c(=O)c2[nH]cnc2n(C)c1=O
- T/C (dose: 14.5 mg/kg/injection, schedule: Q01DX011 (ip), vehicle: carboxymethylcellulose (CMC)): 97 % of control
- T/C (dose: 29.0 mg/kg/injection, schedule: Q01DX011 (ip), vehicle: carboxymethylcellulose (CMC)): 93 % of control
- T/C (dose: 58.0 mg/kg/injection, schedule: Q01DX011 (ip), vehicle: carboxymethylcellulose (CMC)): 82 % of control
- T/C (dose: 116.0 mg/kg/injection, schedule: Q01DX011 (ip), vehicle: carboxymethylcellulose (CMC)): 66 % of control

Structure (SMILES): Nc1nc(SCc2ccccc2Cl)c2ncn(C3OC(CO)C(O)C3O)c2n1 (centres undefined)
- T/C [10]: 102 % of control
- T/C [5]: 70 % of control
- T/C [8]: 61 % of control
- T/C [6]: 83 % of control
- T/C [9]: 61 % of control and 68 % of control
- T/C [7]: 61 % of control and 68 % of control
- T/C [3]: 16 % of control and 41 % of control
- T/C [4]: 10 % of control and 28 % of control
- T/C [1]: 2 % of control

Structure (SMILES): CCOc1ccc2nc(S(N)(=O)=O)sc2c1
- T/C (dose: 62.0 mg/kg/injection, schedule: Q01DX011 (ip), vehicle: carboxymethylcellulose (CMC)): 77 % of control
- T/C (dose: 125.0 mg/kg/injection, schedule: Q01DX011 (ip), vehicle: carboxymethylcellulose (CMC)): 89 % of control

Structure (SMILES): NCCCC(NC(=O)CCCCCCCCN=C(N)N)C(O)CCCCCCCCN=C(N)N (centres undefined)
- T/C [10]: 102 % of control
- T/C [5]: 82 % of control
- T/C [6]: 92 % of control
- T/C [9]: 96 % of control
- T/C [7]: 79 % of control

Structure (SMILES): Nc1ccccc1N
- T/C [4]: 84 % of control
- T/C [2]: 11 % of control and 13 % of control and 18 % of control
- T/C (dose: 150.0 mg/kg/injection, schedule: Q01DX011 (ip), vehicle: carboxymethylcellulose (CMC)): 10 % of control
